Data on 1 compound can be found in paper PMC8201677, “Calycosin-loaded nanoliposomes as potential nanoplatforms for treatment of diabetic nephropathy through regulation of mitochondrial respiratory function” (Journal of Nanobiotechnology, 2021).

The structures appear in SMILES notation.

Usually AUC(0-inf) stands for total exposure, with the tail of the curve extrapolated. The term AUC(0-t) denotes exposure summed from dosing to a finite time, without extrapolation to infinity. Low readings indicate low exposure, high ones high exposure. The term Cmax denotes the peak of the concentration-time curve. By Tmax is commonly meant the time at which the peak concentration occurs. As usually defined, the half-life is how long it takes for the measured level to halve.

Series [1] relates to mitochondria in kidney cells of diabetic rats. Briefly: MTT assay of mitochondrial viability in diabetic rats. It is filed as in vivo, Sprague–Dawley rats. Conditions: streptozotocin diabetic rats, treated 4 weeks. The protocol: (§1) Diabetes was induced in mice by injecting streptozotocin purchased from Sigma (USA). Streptozotocin was dissolved in a citrate buffer (pH 6.5, 0.1 M) and injected at a dose of 65 mg/kg intraperitoneally. Blood glucose was measured before the test and one week after streptozotocin injection, and mice with blood glucose above […] were considered diabetic. The calycosin or calycosin-loaded nanoliposomes were dissolved in PBS until it was ready to be injected, and the mice received […] of calycosin-loaded nanoliposomes for 4 weeks after becoming diabetic. Vitamin E (100 mg/kg) was also used as a positive control group. Animals were randomly divided in 5 groups which each group consisted of 6 male mice. […] Protein concentration was measured as standard using bovine serum albumin (BSA). […] 100 µl of mitochondrial supernatants were mixed by MTT stock solution (5 mg mL^−1) for 4 h, followed by removing the supernatants, addition of 150 μL DMSO for 5 min, and reading the absorbance of the samples at 570 nm using a microplate reader (BIO-RAD microplate reader-550).
On the technique in general: Tetrazolium dyes change colour on reduction, which living cells bring about.

Series [2] has the same test system. Briefly: Lipid peroxidation (MDA) by TBARS analysis in diabetic rats. It is filed as in vivo, Sprague–Dawley rats. Conditions: streptozotocin diabetic rats, treated 4 weeks.
Series [3] can be described thus: In vitro drug release in dialysis media (simulated gastric, intestinal and physiological fluid). It is filed as physicochemical. On the procedure:
The EE and DL of the prepared calycosin-loaded nanoliposomes were determined by the dialysis method described previously. Briefly, 700 μL of the prepared calycosin-loaded nanoliposomes solution was added into a dialysis bag (cutoff of 8000), followed by putting into 20 mL of dialysis medium (PBS, pH 7.4). The samples were then shacked (10 h), and centrifuged (3000 rpm, 2 min) to determine the free calycosin concentration in the supernatant. Also, 500 µL of the calycosin-loaded nanoliposomes were added by 1500 μL of methanol, vortexed ([…]), sonicated (5 min), centrifuged (3000 rpm, 2 min) to calculate the total calycosin concentration (C0). 20 mL of the prepared calycosin-loaded nanoliposomes powder (V0) was weighted to calculate the solid powder mass (W0). 25 µl of the sample was injected into a HPLC system containing Phenomenex ODS analytical column (150 mm × 4.6 mm, 5 μm) with a guard column (30 mm × 10 mm, 3 μm) at 40 °C. The mobile phase was a mixture of methanol: double distilled water as follows:0.05 M KH2PO4 = 40:60:5, pH 4.0, with a flow rate of 1.0 ml/min [37]. The simulated gastric fluid was 0.1 mol/L HCl (100 mM, pH 1.2) supplemented with 0.5% Tween-80, the simulated intestinal fluid was PBS buffer (25 mM, pH 6.9) containing 0.5% Tween-80, and the simulated physiological buffer was PBS (150 mM, pH 7.4) containing 0.5% Tween-80. The cumulative drug release was then determined using the following equation [35]: Cumulative release rate%=[V1×(C1⋯+Ci1)+V2×Ci]/Vo×Co×100 where, V1 is the sampling amount, V2 is the volume of the dialysis medium, C1–Ci is the concentration of calycosin at each time point, and V0 and C0 are the volume and concentration of calycosin-loaded nanoliposomes added to the dialysis bag. Stability of calycosin-loaded nanoliposomes was explored for about two months at 37 °C by using particle size and encapsulation efficiency of the reconstituted nanoliposome.

Series [4] can be described thus: Dissolution study in PBS pH 7.4. It is filed as physicochemical. On the procedure:
The dissolution studies were performed based on the previous study. Briefly, the dissolution medium (pH 7.4, PBS, 900 ml) under stirring (100 rpm) was added by calycosin-loaded nanoliposomes which is equivalent to 50 mg of drug and at different time intervals, 15 mL samples were removed, replaced, filtrated ([…]), and dissolved in mixed solvent (methanol: distilled water = 5.5:3.5, v/v). Finally, 25 µl of the sample was injected into a HPLC system. The rest of the setup was similar to the above-mentioned explanations.

A short description of series [5]: Pharmacokinetics in rats after oral administration. It is filed as in vivo. Conditions: male, Sprague-Dawley, rat, single dose 30 mg/kg calycosin, plasma. The protocol: […] male Sprague–Dawley rats were randomly divided into three groups ([…]) as control, treated with calycosin, and treated with calycosin-loaded nanoliposomes (dissolved in 1% ethanol). The doses of calycoin groups were 30 mg/kg for oral administration. After the rats were intragastrically administered with free or Nano-formulated calycosin, the 0.5 mL blood was taken from the fundus venous plexus of each rat at different time intervals. The blood samples were then centrifuged (4000 rpm, 10 min), and the plasma was removed and to stored − 80 °C. The content of the drug in the plasma sample was then calculated by the established LC-MS/MS method based on the previous report.

The test system of series [6] is mitochondria in kidney cells of diabetic rats. Briefly: ROS measurement by DCFH-DA assay in diabetic rats. It is filed as in vivo, Sprague–Dawley rats. The conditions noted are these: streptozotocin diabetic rats, treated 4 weeks. The protocol: as §1, with “Then,” for “100 µl of mitochondrial supernatants were mixed by MTT stock solution (5 mg mL^−1) for 4 h, followed by removing”, “fluorescence intensity” for “supernatants, addition of 150 μL DMSO for 5 min, and reading the absorbance”, “samples was read” for “samples”, “λex/λem of 485 nm/530” for “570”, “spectrofluorometer (CLARIOstar, Offenburg, Germany).” for “microplate reader (BIO-RAD microplate reader-550).”

Regarding `COc1ccc(-c2coc3cc(O)ccc3c2=O)cc1O` [calycosin], the “mitochondrial viability (MTT) in comparison with diabetic rats” value in series [1] is on record as “significant recovery of mitochondrial viability”. Moreover, the “MDA level (lipid peroxidation)” value in series [2] is “remarkable decrease in lipid peroxidation”. Also, the “time of (almost) complete / 100% release” value in series [3] (simulated gastric medium pH 1.2) is listed as roughly 20 h; in series [3] (simulated intestinal fluid pH 6.9), roughly 100 h; in series [3] (simulated physiological fluid pH 7.4), roughly 120 h. Also, the cumulative release entry in series [3] (simulated gastric medium pH 1.2, 1 h) is recorded as “about 32%”; in series [3] (simulated intestinal fluid pH 6.9, 1 h), “about 32%”; in series [3] (simulated intestinal fluid pH 6.9, 20 h), 90%; in series [3] (simulated physiological fluid pH 7.4, 1 h), “about 7%”; in series [3] (simulated physiological fluid pH 7.4, 20 h) it was 55%. The dissolution rate entry in series [4] was “low”. In series [5], this compound yielded a total exposure AUC(0-inf) of 421 ± 73.3 ng·h/mL. The compound further had an AUC(0-t) in series [5] of 409 ± 67.3 ng·h/mL. In series [5], this compound registered a Cmax of 298 ± 35.8 ng/mL. Further, in series [5], the Tmax turned out to be 11.4 ± 1.02 min. For the same compound, in series [5], the half-life was 419 ± 57.6 min. Besides, in series [5] (read-out: MRT0−t), the MRT last stood at 8.68 ± 1.27 h. Also, in series [6], the “generation of ROS (DCF fluorescence intensity)” value is “potentially reduced the generation of ROS”.
